Results taken from patent publication US6495331B1, “Regulation of cytokine production in a hematopoietic cell” (National Jewish Center for Immunology and Respiratory …, priority 1996, dated 2002).

Key:
Assay type in all cases: cell-based, mouse
JNK = JNK activity (GST-c-Jun kinase assay) in OVA-stimulated OVA-IgE-sensitized MC/9 cells
Procedure: MC/9 cells (5×10^6/ml) were cultured with 500 ng/ml anti-OVA IgE for 2 h. The cells were washed with medium three times and cultured with fresh medium for an additional 2 h. OVA dissolved in PBS or anti-IgE was added for the stimulation, and PBS was used as a control vehicle.
The activity of JNK was measured by monitoring the activity of a Glutathione S-transferase-c-Jun-(1-79) fusion protein. Cells (3×10^6) were lysed in a buffer (20 MM Tris-HCl, pH 7.6, 250 mM NaCl, 3 mM EDTA, 3 mM EGTA, 0.5% NP-40, 2 mM Na3VO4, 1 mM dithiothreitol (DTT), 1 mM phenylmethylsulfonyl fluoride (PMSF), 20 μg/ml aprotinin, 5 μg/ml leupeptin). The lysates were mixed with GST-c-Jun-Sepharose beads and rotated at 4° C. for 3 h. The beads were washed twice in lysis buffer and once in kinase assay buffer (20 mM Hepes, pH 7.5, 20 mM β-glycerophosphate, 10 mM MgCl2, 1 mM DTT, 50 mM Na3VO4, 10 mM p-nitrophenyl phosphate). After the final wash, 40 μl of a kinase assay buffer containing 10 μCi of γ-^32P-ATP (ICN Pharmaceuticals, Irvine, Calif.) were added per sample. […] The bands corresponding to GST-c-Jun were cut out of the gel, and radioactivity was determined by liquid scintillation counting. […]

ERK2 [1] = experiment: ERK2 in vitro kinase assay (32P incorporation into myelin basic protein) in OVA-stimulated sensitized MC/9 cells
Procedure: MC/9 cells sensitized with OVA-IgE (1×10^6/ml) were incubated with 0.1% DMSO (control and 0 nM) or 3-30 μM PD 098059 for 1 h and the reaction was stopped by centrifugation at 5 min after the stimulation. The cells were then incubated with 10 μg/ml OVA or PBS (control) for 5 min. Kinase activity of ERK2 was measured as ^32P incorporation into myelin basic protein (MBP).
In vitro kinase assay of ERK2 was carried out as described above with some minor modifications. 3×10^6 cells were lysed by vigorous mixing in 0.4 ml of lysis buffer (20 mM Tris-HCl (pH 8.0), 1% Triton X-100, 10% glycerol, 137 mM NaCl, 1.5 mM MgCl2, 1 mM EGTA, 50 mM NaF, 1 mM Na3VO4, 1 mM PMSF, 5 μg/ml leupeptin, and 10 μg/ml aprotinin). The lysate was incubated with anti-ERK2 antibody (2 μg/ml) for 2 hrs at 4° C. Recombinant protein G sepharose 4B was added to the lysate and incubated for an additional 1 hr at 4° C. The immune complexes were washed three times with lysis buffer, and once with kinase buffer (30 mM Tris-HCl (pH 8.0), 20 mM MgCl2, 2 mM MnCl2). For the in vitro kinase assay, the immune complex suspension was incubated with 9 μg myelin basic protein (MBP) and 10 μCi of [γ-^32P] ATP in kinase buffer in a final volume of 30 μl for 30 min at 30° C. […] The bands corresponding to MBP were cut out of the gel, and radioactivity was determined by liquid scintillation counting.

p38 MAP kinase = p38 MAP kinase immunoprecipitation kinase assay (ATF-2 substrate) in OVA-stimulated sensitized MC/9 cells
Procedure: MC/9 cells sensitized with OVA-IgE were incubated in the presence of PBS (O min) or 10 μg/ml OVA for 1, 5, 15, 30, or 60 min. To immunoprecipitate p38 kinase, 3×10^6 cells were lysed by vigorous mixing in 0.4 ml of extraction buffer (1% Triton X-100, 10 mM Tris-HCl (pH 7.4), 5 mM EDTA, 50 mM NaCl, 50 mM […], 0.1% bovine serum albumin (BSA), 20 μg/ml aprotinin, 1 mM PMSF, and 2 mM Na3VO4). The lysate was incubated with the rabbit anti-serum raised against the COOH-terminal peptide sequence of p38 (1:400 dilution) for 2 h at 4° C. Recombinant protein G sepharose 4 B was added to the lysate and incubated for an additional 1 h at 4° C. The immunoprecipitates were washed once with extraction buffer, twice with PAN buffer (10 mM piperazine-N, N′-bis (2-ethanesulfonic acid) (PIPES, pH 7.0), 100 mM NaCl, 20 μg/ml aprotinin). […] The kinase activity was quantified with a PhosphorImager (Molecular Dynamics, Sunnyvale, Calif.).
MC/9 cells sensitized with OVA-IgE (3×10^6) were preincubated with either 1-1000 nM wortmannin or a control (0.01% DMSO) for 15 min and stimulated for 5 min by addition of 10 μg/ml OVA. […] The data are expressed as the percentage of p38 activity detected in the presence of 10 μg/ml OVA and 0.01% DMSO (*, p<0.05).

TNF-α production = TNF-α production by OVA-stimulated sensitized MC/9 cells, ELISA; conditions: then 10 μg/ml OVA 3 h
Procedure: An ELISA for TNF-α production was performed as follows. Purified rat anti-mouse TNF-α monoclonal antibody was diluted to 2 μg/ml in coating solution (0.1 M NaHCO3, pH 8.2) and 50 μg was added to wells of an ELISA plate (Dynatech Laboratories). […] After washing twice, standards (16 pg/ml −4 ng/ml recombinant mouse TNF-α) and samples were added at 100 μl per well and incubated overnight at 4° C. After washing four times, biotinylated rabbit anti-mouse TNF-α polyclonal antibody (1 μg/ml) was added to wells and incubated at room temperature for 45 min and wells were washed six times. […] ABTS (2,2′-Azino-bis(3-ethylbenzthiazoline-6-sulfonic acid) substrate (30 mg/ml 0.1 M citric acid, pH 4.35) containing 0.03% H2O2 was added at 100 μl per well and color reaction was allowed to develop at room temperature for 30 min. A plate was read at OD 410 nm and analyzed by Mycroplate Manager (Bio Rad, Hercules, Calif.).
MC/9 cells (1×10^6/ml) were incubated with 500 ng/ml mouse monoclonal IgE specific for OVA (OVA-IgE) for 2 h. […] After the incubation, the cell supernatant was harvested and TNF-α production was measured by ELISA.
The effect of wortmannin on TNF-α production in MC/9 cells was also examined. […] TNF-α in the medium was measured by ELISA.
MC/9 cells sensitized with OVA-IgE (1×10^6/ml) were incubated with 0.1% DMSO or 30 μM PD 098059 for 1 h. […] TNF-α in the medium was measured by ELISA.

human TNF-α promoter = experiment: TNF-α promoter luciferase reporter pTNF(-1311)Luc in MC/9 cells stimulated by FcεRI aggregation
Procedure: The pXP1 plasmid containing full length of the human TNF-α promoter just upstream of the luciferase gene, designated pTNF(-1311)Luc, was provided by Dr. James S. Economou (Division of Surgical Oncology, UCLA School of Medicine, Los Angels, Calif.). pTNF(-1311)Luc was transfected into MC/9 by the DEAE-dextran method. 2×10^6 cells were washed once with 1×TBS (25 mM Tris, 137 mM NaCl, 5 mM KCl, 0.5 mM Na2HPO4, 0.49 MM MgCl2, 0.68 mM CaCl21 pH 7.5). Cells were suspended with 0.4 ml of 500 μg DEAE-dextran/4 μgDNA mixture and incubated at room temperature for 30 min. After washed with 1×TBS, cells were suspended with 10 ml of culture medium and plated on culture dish. […]
Luciferase activity was measured to measure TNF-α promoter activity. […] 30 μl of the lysate was mixed with the same volume of Luciferase Assay Substrate containing beetle luciferin as a substrate (Promega, Madison Wis.), and chemiluminescence was measured for 30 sec as relative light units by a luminometer (Monolight 2010, Analytical Luminescence Laboratory, San Diego, Calif.).
MC/9 cells transiently transfected by pTNF(-1311)Luc were passively sensitized with OVA-IgE, and incubated for an additional 15 h with 10 μg/ml OVA or PBS in the presence of 0.01% DMSO or 100 nM wortmannin. […] Luciferase activity in cell lysates was measured as relative light units (RLU) and standardized by control RLU (mean±S.D., N=4, p<0.01). […]

ERK2 [2] = experiment: ERK2 phosphorylation by anti-ERK2 immunoblot in MC/9 cells; conditions: PD 098059, MC/9 cells
Procedure: After different treatments, 1×10^6 cells were lysed in buffer (150 mM NaCl, 1% Nonidet P-40, 0.5% deoxycholic acid sodium salt, 0.1% SDS, 50 mM Tris (pH 7.6), 10 μg/ml aprotinin, […] leupeptin, 1 mM phenylmethylsulfonyl fluoride). Samples were electrophoresed on SDS-10% polyacrylamide gels and proteins were transferred to nitrocellulose membranes. Membranes were incubated overnight in blocking buffer containing 1% BSA at 4° C. The monoclonal anti-ERK2 antibody (200 μg/69 μl, Upstate Biotechnology) was added to the blocking buffer (1:1000), and blots were incubated for an additional 1 h at room temperature. The blots were washed in TBST (25 mM Tris (pH 8.0), 125 mM NaCl, 0.025% Tween 20), and specific reactive proteins were detected by an enhanced chemiluminescence method, employing a sheep anti-mouse Ig antibody linked to horseradish peroxidase (Amersham Corp.).
1×10^6 cells were lysed in buffer (150 mM NaCl, 1% NP40, 0.5% deoxycholic acid sodium salt, 0.1% SDS, 50 mM Tris (pH 7.6), 10 μg/ml aprotinin, […] leupeptin, 1 mM PMSF). […] The blots were washed in TBST (25 mM Tris, pH 8.0, […] NaCl, 0.025% Tween 20) and specific reactive proteins were detected by an enhanced chemiluminescence method, employing a sheep anti-mouse Ig antibody linked to horseradish peroxidase (Amersham, Arlington Heights, Ill.).

Structure (SMILES)	effect on JNK activation (JNK; PD 098059, data not shown)	decrease in OVA-induced ERK2 activity (ERK2 [1]; 30 μM PD 098059, 1 h, then 10 μg/ml OVA 5 min)	effect on ERK2 activities (ERK2 [1]; 10-30 μM PD 098059, MC/9 cells)	effect on p38 activation (p38 MAP kinase; PD 098059, data not shown)	effect on TNF-α production (TNF-α production; 30 μM PD 098059, 1 h)	effect on OVA-induced luciferase activity (TNF-α promoter) (human TNF-α promoter; 30 μM PD 098059, 10 μg/ml OVA 15 h)	effect on ERK2 phosphorylation induced by aggregation of FcεRI (ERK2 [2])	JNK kinase activity, percentage of that observed in the absence of treatment (JNK; 100 nM wortmannin, 15 min preincubation, 10 μg/ml OVA 10 min, MC/9 cells)	decrease in p38 kinase activities (p38 MAP kinase; 100 nM-1 μM wortmannin, 15 min, then 10 μg/ml OVA 5 min)	decrease in TNF-α production (TNF-α production; 100 nM wortmannin, 15 min)	decrease in OVA-induced luciferase activity (TNF-α promoter) (human TNF-α promoter; 100 nM wortmannin, 10 μg/ml OVA 15 h)
COc1cccc(-c2cc(=O)c3ccccc3o2)c1N [PD 098059]	did not inhibit	65%	significantly inhibited	did not inhibit	did not affect TNF-α production	enhanced OVA-induced luciferase activity	strongly inhibited	–	–	–	–
COC[C@H]1OC(=O)c2coc3c2[C@@]1(C)C1=C(C3=O)[C@@H]2CCC(=O)[C@@]2(C)C[C@H]1OC(C)=O [wortmannin]	–	–	–	–	–	–	–	8%	50-60%	77%	40%
